Results as given in patent US8110571B2, “Benzimidazole and benzothiazole derivatives, method for preparing same, use thereof as drugs, pharmaceutical compositions and novel use especially as c-MET inhibitors” (Aventis Pharma S.A., priority 2005, dated 2012).
Counter-ions that a name gives are not always drawn.

Q: Which melting point does the source give for `O=C(NCCN1CCCCCC1)Nc1nc2ccc(OS(=O)(=O)c3c(Cl)cccc3Cl)cc2s1` (as salt: benzenesulfonate) [Example 76, 2-{[(2-azepan-1-ylethyl)carbamoyl]amino}-1,3-benzothiazol-6-yl 2,6-dichlorobenzenesulfonate] here?
A: 146 °C

Q: With `O=C(NCc1cccnc1)Nc1nc2ccc(OS(=O)(=O)c3c(Cl)cccc3Cl)cc2s1` (as salt: benzenesulfonate) [Example 78, 2-{[(pyridin-3-ylmethyl)carbamoyl]amino}-1,3-benzothiazol-6-yl 2,6-dichlorobenzenesulfonate] as the molecule, how does the melting point read?
A: 227 °C

Q: Which melting point does the source give for `O=C(NCCC1CCNCC1)Nc1nc2ccc(OS(=O)(=O)c3c(Cl)cccc3Cl)cc2s1` (as salt: trifluoroacetic acid salt) [Example 35, 2-{[(2-Piperidin-4-ylethyl)carbamoyl]amino}-1,3-benzothiazol-6-yl 2,6-dichlorobenzenesulfonate] here?
A: 240 °C

Q: For `Cc1cccc(Cl)c1S(=O)(=O)Oc1ccc2[nH]c(NC(=O)NCCN3CCOCC3)nc2c1` [Example 11, 2-{[(2-Morpholin-4-ylethyl)carbamoyl]amino}-1H-benzimidazol-5-yl 2-chloro-6-methylbenzenesulfonate], which melting point is on record?
A: 168 °C

Q: Which melting point does the source give for `Nc1cc(Cl)cc(Cl)c1S(=O)(=O)Oc1ccc2nc(NC(=O)NCCN3CCOCC3)sc2c1` [Example 39, 2-{[(2-Morpholin-4-ylethyl)carbamoyl]amino}-1,3-benzothiazol-6-yl 2-amino-4,6-dichlorobenzenesulfonate] here?
A: 128 °C
